Source: publication PMC6572064, “Discovery of 2-(1-(3-(4-Chloroxyphenyl)-3-oxo- propyl)pyrrolidine-3-yl)-1H-benzo[d]imidazole-4-carboxamide: A Potent Poly(ADP-ribose) Polymerase (PARP) Inhibitor for Treatment of Cancer” (Molecules, 2019)
pIC50: −log10 of the molar value. Where two headings read alike, the source gives them in different places.

How the values were obtained:
[1] = system: MDA-MB-436 (a BRCA-1-mutated breast cancer cell line); experiment: Cell proliferation assay, three-day, CellTiter-Glo, MDA-MB-436; type: cell-based; conditions: for inhibition at 0.00508 µM: MDA-MB-436, MDA-MB-436, Conc. 0.00508 uM; for inhibition at 0.0152 µM: MDA-MB-436, MDA-MB-436, Conc. 0.0152 uM; for inhibition at 0.0457 µM: MDA-MB-436, MDA-MB-436, Conc. 0.0457 uM; for inhibition at 0.41 µM: MDA-MB-436, MDA-MB-436, Conc. 0.41 uM; for inhibition at 1.23 µM: MDA-MB-436, MDA-MB-436, Conc. 1.23 uM; for inhibition at 3.7 µM: MDA-MB-436, MDA-MB-436, Conc. 3.70 uM; for inhibition at 11.11 µM: MDA-MB-436, MDA-MB-436, Conc. 11.11 uM; for inhibition at 33.33 µM: MDA-MB-436, MDA-MB-436, Conc. 33.33 uM; for inhibition at 100 µM: MDA-MB-436, MDA-MB-436, Conc. 100.00 uM
Outline: (§1)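 Cells seeded overnight in 384-well plates, then exposed to compounds (DMSO stock diluted in medium) for 72 h at 37 °C, 5% CO2. Viability read as CellTiter-Glo luminescence after 60 min at room temperature.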

[2] = system: CAPAN-1 (a BRCA-2-mutated pancreatic cancer cell line); experiment: Cell proliferation assay, three-day, CellTiter-Glo, CAPAN-1; type: cell-based; conditions: for inhibition at 0.00508 µM: CAPAN-1, 0.00508 uM; for inhibition at 0.0152 µM: CAPAN-1, 0.0152 uM; for inhibition at 0.0457 µM: CAPAN-1, 0.0457 uM; for inhibition at […]: CAPAN-1, 0.14 uM; for inhibition at 0.41 µM: CAPAN-1, 0.41 uM; for inhibition at 1.23 µM: CAPAN-1, 1.23 uM; for inhibition at 3.7 µM: CAPAN-1, 3.70 uM; for inhibition at 11.11 µM: CAPAN-1, 11.11 uM; for inhibition at 33.33 µM: CAPAN-1, 33.33 uM; for inhibition at 100 µM: CAPAN-1, 100.00 uM
Outline: as §1

PARP-1 = target: T1, PARP-1 (Homo sapiens, UniProt P09874); experiment: PARP-1 inhibition assay (PARP-1 Chemiluminescent Assay Kit, BPS Bioscience); type: biochemical; conditions: for inhibition at 0.01 µM: 10 nM compound
T1 construct: purchased BPS Bioscience 80569
T1 sequence (P09874 whole entry): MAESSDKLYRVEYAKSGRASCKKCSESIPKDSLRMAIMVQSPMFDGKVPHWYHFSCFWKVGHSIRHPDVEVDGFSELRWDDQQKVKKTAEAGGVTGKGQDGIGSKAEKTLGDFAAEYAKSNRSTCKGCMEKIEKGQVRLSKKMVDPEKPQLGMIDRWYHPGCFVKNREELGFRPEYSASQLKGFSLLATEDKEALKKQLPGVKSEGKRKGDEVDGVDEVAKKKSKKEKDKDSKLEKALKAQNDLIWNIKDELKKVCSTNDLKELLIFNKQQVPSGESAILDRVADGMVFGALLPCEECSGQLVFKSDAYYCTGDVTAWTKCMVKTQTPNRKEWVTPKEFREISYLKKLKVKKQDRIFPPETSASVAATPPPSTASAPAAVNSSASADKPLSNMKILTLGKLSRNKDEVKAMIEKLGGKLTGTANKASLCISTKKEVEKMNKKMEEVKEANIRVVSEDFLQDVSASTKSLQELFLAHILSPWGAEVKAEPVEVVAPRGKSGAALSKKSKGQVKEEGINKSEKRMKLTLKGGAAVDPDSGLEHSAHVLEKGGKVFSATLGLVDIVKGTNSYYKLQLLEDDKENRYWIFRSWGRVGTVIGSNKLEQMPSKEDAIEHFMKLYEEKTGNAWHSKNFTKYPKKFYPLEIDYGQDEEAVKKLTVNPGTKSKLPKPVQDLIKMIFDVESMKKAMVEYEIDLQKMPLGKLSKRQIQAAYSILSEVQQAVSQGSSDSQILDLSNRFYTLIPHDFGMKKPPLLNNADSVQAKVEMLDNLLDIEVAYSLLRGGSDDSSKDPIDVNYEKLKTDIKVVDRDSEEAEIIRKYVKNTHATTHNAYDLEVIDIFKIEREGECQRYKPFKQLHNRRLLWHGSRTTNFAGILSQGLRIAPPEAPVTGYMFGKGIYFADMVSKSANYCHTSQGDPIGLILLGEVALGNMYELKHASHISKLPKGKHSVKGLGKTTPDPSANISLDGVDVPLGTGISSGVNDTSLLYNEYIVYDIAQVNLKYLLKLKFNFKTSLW
Protocol: (§2) The PARP-1 and PARP-2 inhibition assays were performed in outsourcing, by a CRO company, Shanghai Medicilon Inc. (Shanghai, China). […] Briefly, PARP-1 or PARP-2 biotinylated substrate was incubated with compounds or solvent control at varying concentrations and an assay buffer containing the PARP-1 or PARP-2 enzyme.

PARP-2 = target: T2, PARP-2 (Homo sapiens, UniProt Q9UGN5); experiment: PARP-2 inhibition assay (PARP-2 Chemiluminescent Assay Kit, BPS Bioscience); type: biochemical; conditions: for inhibition at 0.01 µM: 10 nM compound
T2 construct: purchased BPS Bioscience 80552
T2 sequence (Q9UGN5 whole entry): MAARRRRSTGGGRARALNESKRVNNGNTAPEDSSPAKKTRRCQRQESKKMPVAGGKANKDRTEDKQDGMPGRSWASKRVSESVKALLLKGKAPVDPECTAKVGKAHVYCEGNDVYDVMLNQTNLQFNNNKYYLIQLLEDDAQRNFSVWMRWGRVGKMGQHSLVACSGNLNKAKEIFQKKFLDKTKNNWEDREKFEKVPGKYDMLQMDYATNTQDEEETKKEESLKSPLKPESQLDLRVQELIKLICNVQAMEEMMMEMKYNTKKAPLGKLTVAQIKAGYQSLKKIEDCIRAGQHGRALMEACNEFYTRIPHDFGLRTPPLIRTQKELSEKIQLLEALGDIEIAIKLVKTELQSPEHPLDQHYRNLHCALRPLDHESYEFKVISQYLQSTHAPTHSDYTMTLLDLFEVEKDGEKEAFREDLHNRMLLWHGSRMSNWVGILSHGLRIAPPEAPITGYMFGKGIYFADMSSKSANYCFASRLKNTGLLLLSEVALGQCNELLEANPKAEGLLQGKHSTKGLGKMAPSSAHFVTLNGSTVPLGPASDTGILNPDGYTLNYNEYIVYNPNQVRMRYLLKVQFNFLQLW
Protocol: as §2

[3] = Homo sapiens, replicate 1, read-out: Inh % 1
[4] = Homo sapiens, replicate 2, read-out: Inh % 2

pIC50 ([1]; Homo sapiens, MDA-MB-436, 72 h, CellTiter-Glo, read-out: MDA-MB-436 IC50): 4.41
pIC50 ([1]; Homo sapiens, MDA-MB-436, 72 h, supplement Summary sheet, read-out: IC50): 4.41
IC50 ([1]; Homo sapiens, MDA-MB-436, curve fit list, no unit in the cell, concentration in uM, read-out: IC50): 38.6 µM
pIC50 ([2]; Homo sapiens, CAPAN-1, 72 h, CellTiter-Glo, read-out: CAPAN-1 IC50): 4.32
pIC50 ([2]; Homo sapiens, CAPAN-1, 72 h, supplement Summary sheet, read-out: IC50): 4.32
IC50 ([2]; Homo sapiens, CAPAN-1, curve-fit output, concentrations in uM, read-out: IC50): 48.1 µM
inhibition at 0.01 µM (PARP-1; supplement sheet, read-out: 10 nM inhibition% PAPR-1): 59.2%
inhibition at 0.01 µM (PARP-1; read-out: PARP-1 Inhibition % (10 nM)): 59.2%
pIC50 (PARP-1; read-out: PARP-1 IC50): 8.23
pIC50 (PARP-1; supplement sheet, read-out: IC50 PAPR-1): 8.23
inhibition at 0.01 µM (PARP-2; supplement sheet, read-out: 10 nM inhibition% PAPR-2): 62.5%
inhibition at 0.01 µM (PARP-2; read-out: PARP-2 Inhibition % (10 nM)): 62.5%
pIC50 (PARP-2; read-out: PARP-2 IC50): 8.35
pIC50 (PARP-2; supplement sheet, read-out: IC50 PAPR-2): 8.34
Compound: COc1ccc(C(=O)CCN2CCC(c3nc4c(C(N)=O)cccc4[nH]3)C2)cc1 (centres unmarked) [Compound 5ci, 2-(1-(3-(4-Methoxyphenyl)-3-oxopropyl)pyrrolidin-3-yl)-1H-benzo[d]imidazole-4-carboxamide]
inhibition at 0.00508 µM [1, 3]: -3.7%
inhibition at 0.00508 µM [1, 4]: -7.9%
inhibition at 0.0152 µM [1, 3]: -0.252%
inhibition at 0.0152 µM [1, 4]: -7.1%
inhibition at 0.0457 µM [1, 3]: -8.5%
inhibition at 0.0457 µM [1, 4]: -13.5%
inhibition at 0.41 µM [1, 3]: -19.2%
inhibition at 0.41 µM [1, 4]: -15.9%
inhibition at 1.23 µM [1, 3]: -9.5%
inhibition at 1.23 µM [1, 4]: -17.4%
inhibition at 3.7 µM [1, 3]: -10.7%
inhibition at 3.7 µM [1, 4]: -17.4%
inhibition at 11.11 µM [1, 3]: -13.6%
inhibition at 11.11 µM [1, 4]: -15.6%
inhibition at 33.33 µM [1, 3]: 7.8%
inhibition at 33.33 µM [1, 4]: 1.7%
inhibition at 100 µM [1, 3]: 89.3%
inhibition at 100 µM [1, 4]: 86.7%
LogIC50 ([1]; MDA-MB-436, curve fit on Log (uM) concentrations): ~ 1.587
Bottom ([1]; MDA-MB-436, curve fit parameter (Inh %)): -11.35
Top ([1]; MDA-MB-436, curve fit parameter (Inh %), '= 100.0' is a constrained value): 88
LogIC50 ([2]; CAPAN-1, curve-fit output, Log (uM)): 1.682
inhibition at 0.00508 µM [2, 3]: 3.5%
inhibition at 0.00508 µM [2, 4]: -8.1%
inhibition at 0.0152 µM [2, 3]: 3.7%
inhibition at 0.0152 µM [2, 4]: 5.2%
inhibition at 0.0457 µM [2, 3]: 2.3%
inhibition at 0.0457 µM [2, 4]: -3.2%
inhibition at […] [2, 3]: 7.9%
inhibition at […] [2, 4]: 5.4%
inhibition at 0.41 µM [2, 3]: 9.3%
inhibition at 0.41 µM [2, 4]: -5.7%
inhibition at 1.23 µM [2, 3]: -11.8%
inhibition at 1.23 µM [2, 4]: -10.7%
inhibition at 3.7 µM [2, 3]: 0.241%
inhibition at 3.7 µM [2, 4]: -0.2%
inhibition at 11.11 µM [2, 3]: 6%
inhibition at 11.11 µM [2, 4]: -3.5%
inhibition at 33.33 µM [2, 3]: 27.1%
inhibition at 33.33 µM [2, 4]: 18.7%
inhibition at 100 µM [2, 3]: 85.7%
inhibition at 100 µM [2, 4]: 75.3%
